# Test results as given in ChEMBL document CHEMBL3885861, “Open TG-GATES”.
# Species on record: Rattus norvegicus
# Assay: Open TG-GATES - Regimen: Daily Repeat
# Type: toxicity, organism-based, Sprague-Dawley
# Design: regimen Daily Repeat, gender Male, age 6 weeks
# Conditions: in vivo, po, route gavage; for Bas / Eos / Fbg / Hb / Ht / MCV / Mono / Neu / Plat / RBC / Ret / WBC / MCHC: tissue Blood; for KIDNEY_L / KIDNEY_R / KIDNEY_TOTAL: tissue Kidney; for LIVER: tissue Liver; for ALP / AST / BUN / CRE / DBIL / GLC / IP / K / LDH / Na / PL / RALB / TBIL / TC / TG / TP / gamma-GTP: tissue Plasma
# [1] = 60 mg/kg, 72 h, dose level Middle, time 3 day
# [2] = 60 mg/kg, […], dose level Middle, time 7 day
# [3] = 60 mg/kg, […], dose level Middle, time 14 day
# [4] = 60 mg/kg, […], dose level Middle, time 28 day
# [5] = 200 mg/kg, 72 h, dose level High, time 3 day
# [6] = 200 mg/kg, […], dose level High, time 7 day
# [7] = 200 mg/kg, […], dose level High, time 14 day
# [8] = 200 mg/kg, […], dose level High, time 28 day
compound,measurement,setting,value
CO[C@H]1/C=C/O[C@@]2(C)Oc3c(C)c(O)c4c(O)c(c(/C=N/N5CCN(C)CC5)c(O)c4c3C2=O)NC(=O)/C(C)=C\C=C\[C@H](C)[C@H](O)[C@@H](C)[C@@H](O)[C@@H](C)[C@H](OC(C)=O)[C@@H]1C [RIFAMPIN],TERMINAL_BW,[1],238.2 g
same,Bas,[1],0%
same,Eos,[1],1%
same,Fbg,[1],236.6 mg/dL
same,Hb,[1],13.8 g/dL
same,Ht,[1],41.4%
same,MCV,[1],62.9 fL
same,Mono,[1],5.8%
same,Neu,[1],7.4%
same,Plat,[1],118.3 x10_4/uL
same,RBC,[1],658.2 x10_4/ul
same,Ret,[1],5.7%
same,KIDNEY_L,[1],1 g
same,KIDNEY_R,[1],1 g
same,KIDNEY_TOTAL,[1],2 g
same,LIVER,[1],11.3 g
same,ALP,[1],841.6 IU/L
same,AST,[1],60.4 IU/L
same,BUN,[1],19 mg/dL
same,CRE,[1],0.6 mg/dL
same,DBIL,[1],0.02 mg/dL
same,GLC,[1],189 mg/dL
same,IP,[1],9 mg/dL
same,K,[1],4.7 meq/L
same,LDH,[1],98.8 IU/L
same,Na,[1],139.2 meq/L
same,PL,[1],135.4 mg/dL
same,RALB,[1],3.6 g/dL
same,TBIL,[1],0.4 mg/dL
same,TC,[1],83 mg/dL
same,TG,[1],71 mg/dL
same,TP,[1],5.7 g/dL
same,gamma-GTP,[1],1 IU/L
same,TERMINAL_BW,[2],259.9 g
same,TERMINAL_BW,[3],298.5 g
same,TERMINAL_BW,[4],379.8 g
same,Bas,[2],0%
same,Eos,[2],0.6%
same,Fbg,[2],239.6 mg/dL
same,Hb,[2],14.1 g/dL
same,Ht,[2],42.6%
same,MCV,[2],62.5 fL
same,Mono,[2],5.2%
same,Neu,[2],7%
same,Plat,[2],107 x10_4/uL
same,RBC,[2],683.2 x10_4/ul
same,Ret,[2],5.7%
same,WBC,[2],130.9 x10_2/uL
same,Bas,[3],0%
same,Eos,[3],0.6%
same,Fbg,[3],226.6 mg/dL
same,Hb,[3],15.2 g/dL
same,Ht,[3],44.9%
same,MCHC,[3],33.8%
same,MCV,[3],60.6 fL
same,Mono,[3],3.2%
same,Neu,[3],3.4%
same,Plat,[3],115.2 x10_4/uL
same,RBC,[3],742.6 x10_4/ul
same,Ret,[3],3.5%
same,WBC,[3],161.2 x10_2/uL
same,Bas,[4],0%
same,Eos,[4],1%
same,Fbg,[4],226.4 mg/dL
same,Hb,[4],15.2 g/dL
same,Ht,[4],44.9%
same,MCHC,[4],33.8%
same,MCV,[4],55.8 fL
same,Mono,[4],3.4%
same,Neu,[4],9.6%
same,Plat,[4],117.9 x10_4/uL
same,RBC,[4],803.6 x10_4/ul
same,Ret,[4],2.3%
same,WBC,[4],138.4 x10_2/uL
same,KIDNEY_L,[2],1.1 g
same,KIDNEY_R,[2],1.1 g
same,KIDNEY_TOTAL,[2],2.2 g
same,KIDNEY_L,[3],1.1 g
same,KIDNEY_R,[3],1.2 g
same,KIDNEY_TOTAL,[3],2.3 g
same,KIDNEY_L,[4],1.3 g
same,KIDNEY_R,[4],1.3 g
same,KIDNEY_TOTAL,[4],2.7 g
same,LIVER,[2],11.6 g
same,LIVER,[3],12.9 g
same,LIVER,[4],14.8 g
same,ALP,[2],813.8 IU/L
same,AST,[2],64.6 IU/L
same,BUN,[2],16.8 mg/dL
same,CRE,[2],0.5 mg/dL
same,DBIL,[2],0.032 mg/dL
same,GLC,[2],193.6 mg/dL
same,IP,[2],8 mg/dL
same,K,[2],5 meq/L
same,LDH,[2],89.4 IU/L
same,Na,[2],139.2 meq/L
same,PL,[2],145.4 mg/dL
same,RALB,[2],3.9 g/dL
same,TBIL,[2],0.3 mg/dL
same,TC,[2],80.4 mg/dL
same,TG,[2],90.6 mg/dL
same,TP,[2],6 g/dL
same,gamma-GTP,[2],2.4 IU/L
same,ALP,[3],779.4 IU/L
same,AST,[3],58.6 IU/L
same,BUN,[3],18.2 mg/dL
same,CRE,[3],0.5 mg/dL
same,DBIL,[3],0.044 mg/dL
same,GLC,[3],193.4 mg/dL
same,IP,[3],7.7 mg/dL
same,K,[3],5.2 meq/L
same,LDH,[3],70.8 IU/L
same,Na,[3],139.8 meq/L
same,PL,[3],160.8 mg/dL
same,RALB,[3],3.9 g/dL
same,TBIL,[3],0.3 mg/dL
same,TC,[3],83.6 mg/dL
same,TG,[3],116.6 mg/dL
same,TP,[3],6.1 g/dL
same,gamma-GTP,[3],1.2 IU/L
same,ALP,[4],610.4 IU/L
same,AST,[4],55.6 IU/L
same,BUN,[4],18.4 mg/dL
same,CRE,[4],0.6 mg/dL
same,DBIL,[4],0.038 mg/dL
same,GLC,[4],185 mg/dL
same,IP,[4],7 mg/dL
same,K,[4],4.4 meq/L
same,LDH,[4],76.2 IU/L
same,Na,[4],140.6 meq/L
same,PL,[4],159.6 mg/dL
same,RALB,[4],4 g/dL
same,TBIL,[4],0.3 mg/dL
same,TC,[4],81.6 mg/dL
same,TG,[4],132 mg/dL
same,TP,[4],6.2 g/dL
same,gamma-GTP,[4],1.2 IU/L
same,TERMINAL_BW,[5],223.8 g
same,Bas,[5],0%
same,Eos,[5],1%
same,Fbg,[5],229 mg/dL
same,Hb,[5],14.3 g/dL
same,Ht,[5],43.3%
same,MCHC,[5],33.1%
same,MCV,[5],63.4 fL
same,Mono,[5],5%
same,Neu,[5],2.6%
same,Plat,[5],122.5 x10_4/uL
same,RBC,[5],684 x10_4/ul
same,Ret,[5],3.9%
same,WBC,[5],123.3 x10_2/uL
same,KIDNEY_L,[5],1 g
same,KIDNEY_R,[5],1 g
same,KIDNEY_TOTAL,[5],2.1 g
same,LIVER,[5],10.2 g
same,ALP,[5],864.8 IU/L
same,AST,[5],61.8 IU/L
same,BUN,[5],15.8 mg/dL
same,CRE,[5],0.5 mg/dL
same,DBIL,[5],0.1 mg/dL
same,GLC,[5],189 mg/dL
same,IP,[5],8.8 mg/dL
same,K,[5],5.1 meq/L
same,LDH,[5],204.6 IU/L
same,Na,[5],138.8 meq/L
same,PL,[5],108 mg/dL
same,RALB,[5],3.7 g/dL
same,TBIL,[5],0.6 mg/dL
same,TC,[5],67 mg/dL
same,TG,[5],48.2 mg/dL
same,TP,[5],6 g/dL
same,gamma-GTP,[5],1.2 IU/L
same,TERMINAL_BW,[6],249 g
same,TERMINAL_BW,[7],298.6 g
same,TERMINAL_BW,[8],356.4 g
same,Bas,[6],0%
same,Eos,[6],0.4%
same,Fbg,[6],226.8 mg/dL
same,Hb,[6],13.8 g/dL
same,Ht,[6],41.1%
same,MCHC,[6],33.5%
same,MCV,[6],62.9 fL
same,Mono,[6],6.4%
same,Neu,[6],7.4%
same,Plat,[6],106.5 x10_4/uL
same,RBC,[6],653.6 x10_4/ul
same,Ret,[6],4.7%
same,WBC,[6],165.2 x10_2/uL
same,Bas,[7],0%
same,Eos,[7],0.2%
same,Fbg,[7],222.4 mg/dL
same,Hb,[7],13.9 g/dL
same,Ht,[7],41.2%
same,MCHC,[7],33.7%
same,MCV,[7],58.7 fL
same,Mono,[7],3.4%
same,Neu,[7],4.8%
same,Plat,[7],114.3 x10_4/uL
same,RBC,[7],702.8 x10_4/ul
same,Ret,[7],4.2%
same,WBC,[7],185.6 x10_2/uL
same,Bas,[8],0%
same,Eos,[8],0.6%
same,Fbg,[8],214.4 mg/dL
same,Hb,[8],14 g/dL
same,Ht,[8],42.2%
same,MCHC,[8],33.1%
same,MCV,[8],53.7 fL
same,Mono,[8],5.4%
same,Neu,[8],8.8%
same,Plat,[8],111.8 x10_4/uL
same,RBC,[8],786.6 x10_4/ul
same,Ret,[8],2.4%
same,WBC,[8],116.3 x10_2/uL
same,KIDNEY_L,[6],1 g
same,KIDNEY_R,[6],1 g
same,KIDNEY_TOTAL,[6],2 g
same,KIDNEY_L,[7],1.2 g
same,KIDNEY_R,[7],1.2 g
same,KIDNEY_TOTAL,[7],2.4 g
same,KIDNEY_L,[8],1.3 g
same,KIDNEY_R,[8],1.3 g
same,KIDNEY_TOTAL,[8],2.6 g
same,LIVER,[6],12.2 g
same,LIVER,[7],13.9 g
same,LIVER,[8],16.8 g
same,ALP,[6],976.6 IU/L
same,AST,[6],62.2 IU/L
same,BUN,[6],17.4 mg/dL
same,CRE,[6],0.5 mg/dL
same,DBIL,[6],0.2 mg/dL
same,GLC,[6],181.2 mg/dL
same,IP,[6],9 mg/dL
same,K,[6],4.9 meq/L
same,LDH,[6],158.4 IU/L
same,Na,[6],139.8 meq/L
same,PL,[6],139.6 mg/dL
same,RALB,[6],3.9 g/dL
same,TBIL,[6],0.5 mg/dL
same,TC,[6],74.8 mg/dL
same,TG,[6],75.8 mg/dL
same,TP,[6],6.2 g/dL
same,gamma-GTP,[6],1.8 IU/L
same,ALP,[7],781 IU/L
same,AST,[7],60.2 IU/L
same,CRE,[7],0.5 mg/dL
same,DBIL,[7],0.2 mg/dL
same,GLC,[7],182.2 mg/dL
same,IP,[7],8.3 mg/dL
same,K,[7],4.9 meq/L
same,LDH,[7],163.8 IU/L
same,Na,[7],140.8 meq/L
same,PL,[7],144.8 mg/dL
same,RALB,[7],4.1 g/dL
same,TBIL,[7],0.4 mg/dL
same,TC,[7],82.2 mg/dL
same,TG,[7],73 mg/dL
same,TP,[7],6.1 g/dL
same,gamma-GTP,[7],1.8 IU/L
same,ALP,[8],771 IU/L
same,AST,[8],54.8 IU/L
same,BUN,[8],19.2 mg/dL
same,CRE,[8],0.5 mg/dL
same,DBIL,[8],0.3 mg/dL
same,GLC,[8],185.4 mg/dL
same,K,[8],4.4 meq/L
same,LDH,[8],160.6 IU/L
same,Na,[8],141.2 meq/L
same,PL,[8],134 mg/dL
same,RALB,[8],4.1 g/dL
same,TBIL,[8],0.6 mg/dL
same,TC,[8],76 mg/dL
same,TG,[8],75.4 mg/dL
same,TP,[8],6.3 g/dL
same,gamma-GTP,[8],0.8 IU/L
